Results as given in patent publication US8377974B2 (Millennium Pharmaceuticals, Inc., priority 2004, dated 2013).
pIC50: −log10 of the molar value.

Biological target: T1, human plasma protein factor Xa (Homo sapiens, UniProt P00742)
T1 construct: measure proteolytic activity of the enzyme (factor Xa); purchased Haematologic Technologies (Essex Junction, Vt.); host or cells: human plasma
Assay: Factor Xa IC50 determination: cleavage of paranitroanilide substrate S-2765 in 96-well plates
Format: biochemical
Details: fXa 1 nM, S-2765 100 μM, Tris buffered saline pH 7.4, room temperature
Method in brief: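 Initial rates of S-2765 (100 μM final) cleavage, read at 405 nm for 2 min, fitted with a four-parameter equation to give IC50. Enzyme: 1 nM human plasma fXa, 5 min room-temperature preincubation with inhibitor (0.01 nM–10 μM) in 20 mM Tris, 150 mM NaCl, 5 mM CaCl2, 0.1% BSA, 5% DMSO, pH 7.4; duplicates.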

T1 sequence (P00742 235-488 limits assumed): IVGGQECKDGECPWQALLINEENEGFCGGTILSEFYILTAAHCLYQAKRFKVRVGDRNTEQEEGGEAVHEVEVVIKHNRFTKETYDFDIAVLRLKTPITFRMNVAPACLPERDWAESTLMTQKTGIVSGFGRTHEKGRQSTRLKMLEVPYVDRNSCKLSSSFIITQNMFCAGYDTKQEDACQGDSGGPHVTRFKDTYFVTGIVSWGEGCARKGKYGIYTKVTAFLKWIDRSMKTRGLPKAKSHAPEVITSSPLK
T1 sequence (P00742 41-179 partner limits assumed): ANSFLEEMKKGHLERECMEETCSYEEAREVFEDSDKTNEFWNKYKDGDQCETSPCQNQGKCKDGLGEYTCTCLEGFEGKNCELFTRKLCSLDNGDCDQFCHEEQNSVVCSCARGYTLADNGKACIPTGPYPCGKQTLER

Compound	pIC50
O=C(NCC1CC(c2ccc(Nc3ccncn3)cc2)=NO1)c1ccc(Cl)s1 (stereo not shown) [Example 230, 5-Chloro-thiophene-2-carboxylic acid {3-[4-(pyrimidin-4-ylamino)-phenyl]-4,5-dihydro-isoxazol-5-ylmethyl}-amide]	6.30 to 7.00
N=C(c1ccccn1)N1CCC(C2=NOC(CNC(=O)c3ccc(Cl)s3)C2)CC1 (stereo not shown) [Example 175, 5-Chloro-thiophene-2-carboxylic acid {3-[1-(imino-pyridin-2-yl-methyl)-piperidin-4-yl]-4,5-dihydro-isoxazol-5-ylmethyl}-amide]	≤ 6.30
O=C(NCC1CC(c2ccc(Nc3ccnc(Cl)c3)cc2)=NO1)c1ccc(Cl)s1 (stereo not shown) [Example 229, 5-Chloro-thiophene-2-carboxylic acid {3-[4-(2-chloro-pyridin-4-ylamino)-phenyl]-4,5-dihydro-isoxazol-5-ylmethyl}-amide]	6.30 to 7.00
O=C(NCC1CC(c2ccc(-n3cccc(Cl)c3=O)cc2)=NO1)c1ccc(Cl)s1 (stereo not shown) [Example 283, 5-Chloro-N-((3-(4-(3-chloro-2-oxopyridin-1(2H)-yl)phenyl)-4,5-dihydroisoxazol-5-yl)methyl)thiophene-2-carboxamide]	≥ 7.00
